Drawing on patent US6548531B2, “Method for cancer therapy” (priority 2001, dated 2003), this text covers antitumor efficacy and Deaths/Total for two compounds.

The test system of data set [1] is MDA-MB-435 breast adenocarcinoma xenograft. The data set is described as follows: In vivo antitumor activity, established mammary fat pad xenograft. The following applies: low doses as single agents, 3 weeks i.p.
Data set [2] in a line: Toxicity (body weight, deaths) in tumor-bearing mice. The following applies: 3 weeks. How it is done:
Drug Preparation and Treatment: Suspensions of Compound II were prepared by combining the drug and Pluronic F68 block copolymer at 1:9 or 1:18 ratios of drug to polymer, to prepare suspensions in the concentration range 0-10 mg/ml and 20 mg/ml respectively. […] The final ratio of liquid components (EtOH, Cremophor, and saline) were 5:5:90, respectively. The experiment consisted of 16 groups which contained a vehicle group, 3 groups given Paclitaxel at 7.5, 15 and 30 mg/kg as a single agent, 3 groups given Compound II at 12.5, 25 and 50 mg/kg as a single agent and […] combination groups of all doses of Paclitaxel and Compound II.
All mice were observed and weighed as groups, 7 times per week for three weeks. The average weight of individual mice was calculated by dividing the group weight by the number of animals per group. Percent body weight change was calculated using the formula:
(Current Average Weight−Initial Average Weight/Initial Average Weight) ×100.

The structures appear in SMILES notation.

On to `Cn1cc(C2=C(c3cn(C)c4cc([N+](=O)[O-])ccc34)C(=O)NC2=O)c2ccccc21` [Compound II], for which the antitumor efficacy entry in data set [1] is on record as “only minimally effective”.
Turning to `CC(=O)O[C@H]1C(=O)[C@@]2(C)[C@H]([C@H](OC(=O)c3ccccc3)[C@]3(O)C[C@H](OC(=O)[C@H](O)[C@@H](NC(=O)c4ccccc4)c4ccccc4)C(C)=C1C3(C)C)[C@]1(OC(C)=O)CO[C@@H]1C[C@@H]2O` [Paclitaxel, paclitaxel], the Deaths/Total in data set [2] (Paclitaxel 7.5 mg/kg i.p. q.d. 5x/week) is 2/10; in data set [2] (Paclitaxel 15 mg/kg i.p. q.d. 5x/week), 0/10; in data set [2] (Paclitaxel 30 mg/kg i.p. q.d. 3x/week) it was 0/10. Besides, the antitumor efficacy entry in data set [1] is on record as “only minimally effective”.
